Data on three molecules can be found in patent US20040006139A1, “Choline pyruvate, method for the production thereof, formulations containing choline pyruvate and the use thereof” (priority 2000, published 2004).

For series [1] the following is noted: 12 hours of storage in a refrigerator; clear, yellow liquid.
The conditions of series [2]: person, daily supplement of 5 g.
For series [3] the following is noted: person, run over marathon distance (26.2 miles), daily supplement of 10 g.
The conditions of series [4]: long-distance runners, 20 miles, intake of 2.8 g, placebo-controlled; cited from earlier work.
The conditions of series [5]: cited from earlier work.
For series [6], the system named is intestinal bacteria. The settings on record: by intestinal bacteria; cited from earlier work.

Like-named read-outs stand apart in the source and are kept apart here.

As to choline pyruvate [Example 1], in series [1], the stability during storage entry was “remained stable”. Also, where the note is “Day 4”, the Appearance result was “clear”, the “HPLC content Parapyruvate” value worked out at 2.7%, the “HPLC content Pyruvate” value stood at 35.3% and the “IC content Choline” value worked out at 50.6%. Further, for the setting “Day 21”, the Appearance result was “clear”, the “HPLC content Parapyruvate” value was 2.6%, the “HPLC content Pyruvate” value turned out to be 35.8% and the “IC content Choline” value is 50.6%. Moreover, for the setting “Day 42”, the Appearance entry was “clear”, the “HPLC content Parapyruvate” value is recorded as 2.6%, the “HPLC content Pyruvate” value amounted to 35.5% and the “IC content Choline” value came out at 50.7%. For the same molecule, under “Day 103”, the Appearance entry is “clear”, the “HPLC content Parapyruvate” value is recorded as 2.8%, the “HPLC content Pyruvate” value is reported as 35.9% and the “IC content Choline” value is listed as 50.6%. In series [2], the fat-free body mass result is given as “increase” and the weight reduction entry was “approximately 3%”. Also, in series [3], the performance increase is listed as 4%.

As for `C[N+](C)(C)CCO.[Cl-]` [choline chloride], the performance increase result in series [4] is listed as “approximately 3%”.

Regarding `C[N+](C)(C)CCO` [choline, hydroxyethyltrimethylammonium], in series [5] (in vivo), the “lowest-observed-adverse-effect level (LOAEL)” value is 7.5 g/day. Further, the “upper tolerable daily dose” value in series [5] (taking into consideration an element of uncertainty) is 3.5 g. For the same molecule, in series [6], the “oral intake converted into di- or trimethylamine” value was “Approximately 60%”.
